# Test results: US20170198011A1, “COMPOSITION FOR TREATING SEPSIS OR SEPTIC SHOCK COMPRISING THE PEPTIDE ORIGINATED FROM THE SMAD6” (Medpacto, Inc., priority 2011, published 2017)
# Where no end group is shown, it is not given here. The star is where a group is joined. Palmitoyl = CCCCCCCCCCCCCCCC(=O)*
# Assays:
# [1] = system: GRK2; assay: LPS-induced GRK2 expression in human neutrophils (immunoblot); type: cell-based; conditions: 100 nM for 2 hrs, then LPS 2 hrs
# Procedure: (§1) To examine how Smaducin-6 interrupts with the LPS-induced downregulation of CXCR2, the levels of G-protein-coupled receptor kinase 2 (GRK2) in human neutrophils and RAW264.7 macrophages were measured. GRK2 is upregualted by LPS, which is known to suppress the expression of CXCR2.
# [2] = system: GRK2; assay: LPS-induced GRK2 expression in RAW264.7 macrophages (immunoblot); type: cell-based, mouse; conditions: RAW264.7 cells, 100 nM for 2 hrs, then LPS 2 hrs
# Procedure: as §1
# [3] = system: lung, liver and spleen of CLP mice; assay: Hematoxylin-eosin staining of tissues of CLP mice; type: in vivo, BALB/c mice; conditions: 16 mg/kg, compared to control
# Procedure: (§2) For use in assay for therapeutic effects of Smaducin-6 on sepsis, BALB/c mice were subjected to CLP (cecal ligation puncture) to prepare suitable animal models of clinical sepsis. Two hours after CLP operation on the mice, Smaducin-6 was subcutaneously injected at a dose of 8 mg/kg, 12 mg/kg, or 16 mg/kg to the mice, and then three more times at regular intervals of 12 hrs. […] In this context, Smaducin-6 was initially injected at a dose of 16 mg/kg 2, 4, or 10 hrs after CLP operation, and then three more times at regular intervals of 12 hrs. Further, cells from various tissues of CLP mice were stained with hematoxylin-eosin to observe nucleus and cell morphology.
# [4] = system: IL6 inflammatory gene; assay: LPS-induced IL-6 expression in RAW264.7 cells by quantitative real-time RT-PCR; type: cell-based; conditions: RAW264.7 mouse macrophages, pre-treatment, then LPS
# Procedure: FIG. 4A is a graph showing IL-6 levels in RAW264.7 cells as measured by quantitative real-time RT-PCR after treatment with scrambled peptides (Pal-Scram; 100 nM) or Smaducin-6 and then with LPS,
# [5] = system: BALB/c mice with CLP-induced sepsis; assay: Survival of mice with CLP-induced sepsis; type: in vivo
# Procedure: as §2
# [6] = system: TRAIL; assay: TRAIL expression in splenocytes of CLP mice (flow cytometry, immunohistochemistry); type: in vivo; conditions: sepsis mice, flow cytometry and immunohistochemistry
# Source text: FIG. 8E is a graph showing expression levels of TRAIL in splenocytes of mice subcutaneously injected with Smaducin-6 or scrambled peptides at 2 and 14 hrs after sepsis induction by CLP, as measured by FACS, the splenocytes being taken 24 hrs after sepsis induction, and
# Also, the effect of Smaducin-6 on the expression of TRAIL in mice with CLP-induced sepsis was examined. Splenocytes from the mice were subjected to flow cytometry and immunohistochemistry for TRAIL in the same manner as in Examples 8B and 8D. In this context, rabbit antibody TRAIL (C92B9, cell signaling), and FITC-conjugated goat antibody to […] (NOVUS) were used as a primary and a secondary antibody, respectively.
# [7] = system: BALB/c mice with LPS-induced septic shock; assay: Survival of mice with LPS-induced septic shock; type: in vivo; conditions: LPS 60 mg/kg intraperitoneal, 16 mg/kg injected four times every 12 hrs from 2 hrs after LPS
# Procedure: FIG. 5D is a graph showing survival rates of BALB/c mice treated with 16 mg/kg Smaducin-6 or scrambled peptides after septic shock is induced by LPS;
# Moreover, therapeutic effects of Smaducin-6 were examined in animal models of septic shock as well as CLP-induced sepsis. In this regard, LPS was intraperitoneally injected at a dose of 60 mg/kg into BALB/c mice, and from two hrs after LPS injection, Smaducin-6 was injected four times at regular intervals of 12 hrs into the mice.
# [8] = system: bacteria in peritoneal fluid; assay: Bacterial count in peritoneal fluid of CLP mice; type: in vivo; conditions: subcutaneous injection, versus scrambled peptides
# Source text: FIG. 7A is a graph showing cell counts in the peritoneal fluid taken from sepsis mice treated with scrambled peptides or Smaducin-6,
# In mice with CLP-induced sepsis, the bacterial clearance of Smaducin-6 was examined. Smaducin-6 or the scrambled peptides were subcutaneously injected into CLP mice from which peritoneal fluid was then extracted from the mice, and bacteria in the fluid was counted. […] An examination was made to see whether this bacterial clearance of Smaducin-6 was attributed to the intraperitoneal migration of neutrophils. To this end, 2 and 14 hrs after induction of septic shock by injecting 60 mg/kg of LPS, Smaducin-6 or the scrambled peptides were injected into septic shock mice, and 24 hrs after the induction of septic shock, neutrophils were isolated from the peritoneal cavity using Histopaque-1077 (Sigma). Mouse neutrophils were counted using Trypan Blue (Sigma).
# [9] = system: IFN-β1; assay: IFN-β1 in peritoneal fluid (ELISA) and splenocytes (FACS) of CLP mice; type: in vivo; conditions: injected 2 and 14 hrs after CLP
# Source text: FIG. 8C is a graph showing levels of the IFN-β1cytokine in peritoneal fluid from mice subcutaneously injected with Smaducin-6 or scrambled peptides at 2 and 14 hrs after sepsis induction by CLP, as analyzed by ELISA, the peritoneal fluid being taken 24 hrs after CLP induction,
# FIG. 8D is a graph showing expression levels of IFN-β1 in splenocytes of mice subcutaneously injected with Smaducin-6 or scrambled peptides at 2 and 14 hrs after sepsis induction by CLP, as measured by FACS, the splenocytes being taken 24 hrs after sepsis induction,
# To analysis the mechanism of the anti-apoptotic activity of Smaducin-6, an examination was made of the IFN-β1-induced TRAIL expression. In this regard, 2 and 14 hrs after CLP, the scrambled peptides or the Smaducin-6 peptide was injected to the mice, and the expression of IFN-β1 in the peritoneal fluid from the mice was analyzed using ELISA in the same manner as in Example 6. In splenocytes from each mouse group, the expression level of IFN-β1 was determined using flow cytometry (FACS). For flow cytometry, IFN-β1 was detected by FITC-conjugated anti-mouse IFN-β antibody (22400-3, interferon source), and stained before data analysis using CellQuest Pro software (BD Bioscience).
substance,measurement,setting,value
"Smaducin-6: palmitic acid conjugated to N-terminus of the 20-amino-acid peptide of Smad6 position 422 to 441, GGRALVVRKVPPGYSIKVFD (SEQ ID NO: 1) (Palmitoyl-GGRALVVRKVPPGYSIKVFD)",LPS-induced GRK2 expression,[1],downregualed
same,LPS-induced GRK2 expression,[2],downregualed
same,"morphology of cells and tissues of the lung, the liver and the spleen",[3],morphologically restored
same,expression of LPS-induced IL6 inflammatory gene,[4],reduced the expression of LPS-induced IL6 inflammatory gene in a dose-dependent manner
same,survival rate of CLP mice,"[5]; 12 mg/kg subcutaneous, first injection 2 hrs after CLP, three more times every 12 hrs (FIG. 5A)",70%
same,survival rate of CLP mice,"[5]; 16 mg/kg subcutaneous, first injection 2 hrs after CLP, three more times every 12 hrs (FIG. 5A)",90%
same,survival rate of CLP mice,"[5]; 16 mg/kg, initial injection 2 hrs after CLP (FIG. 5B)",90%
same,survival rate of CLP mice,"[5]; 16 mg/kg, initial injection 4 hrs after CLP (FIG. 5B)",60%
same,TRAIL expression in splenocytes,[6],reduced
same,survival in LPS-induced septic shock,[7],therapeutic
same,number of bacteria in the peritoneal fluid,[8],significantly lower
same,production of IFN-β1 in peritoneal fluid,[9]; ELISA (FIG. 8C),inhibited
same,expression level of IFN-β1 in splenocytes,[9]; FACS (FIG. 8D),inhibited
